The subject of data set [1] is mGluR1α. In words: Glutamate/NMDA-induced C-terminal truncation of mGluR1α in cultured cortical neurons (immunoblot). To be noted: for block of glutamate-induced truncation of mGluR1α: glutamate 100 μM, antagonist 100 μM. The class given is cell-based. The source says:
Total cell lysates were separated by SDS-PAGE and probed with an antibody against the carboxyl terminus (residue 1142-1160) of mGluR1α. […] Total cell lysates were probed with an anti-myc antibody. […] Total cell lysates were probed with antibodies against mGluR5, G1uR2/3 and VGluT1 respectively.
Total cell lysate was collected immediately after treatment and subjected to SDS-PAGE and immunoblotting with an antibody against the carboxyl terminus (residues 1142-1160) of mGluR1α (FIG. 2A). […] Neurons were transfected with a calcium phosphate precipitation method modified for high transfection rate (Jian et al., Gene Ther 11:1301-1311, 2004).
Cortical neurons were treated with NMDA at the indicated concentrations for 1 h or treated with NMDA (10 μM) for the indicated times. Total cell lysates were separated by SDS-PAGE and probed with antibodies against mGluR1α1142-1160, Results were normalized over control values and are means±s.e.m. of 4 experiments.
To determine whether activation of mGluR1α itself was required for the truncation, two distinct mGluR1α antagonists were applied.
To further characterize NMDA-induced mGluR1α truncation, the concentration- and time-dependencies of the effects of NMDA were studied. Cortical neurons were first incubated with different concentrations of NMDA for a fixed period of time (1 hour) (FIG. 3F). […] In a following experiment, cortical neurons were incubated with 10 μM NMDA for different durations ranging from 1 to 60 min (FIG. 3G).
Cortical neurons were treated with NMDA (10 μM, 1 h). Total cell lysates were separated by SDS-PAGE and probed with antibodies against spectrin and mGluR1α1142-1160, respectively. Only the degradation bands of spectrin (spectrin DB, at ˜145 KD) are shown. […] In FIG. 4C, purified myc-mGluR1α was digested with μ-calpain at the indicated concentrations (U/ml) for 30 min. The digested material was processed for SDS-PAGE and subjected to silver staining or immunoblots with anti-myc or anti-mGluR1α1142-1160 antibodies. […] The 1st lane was the myc-mGluR1α immunoprecipitated from 293 cells; the 2nd and 3rd lanes were immunoprecipitated myc-mGluR1α digested with indicated concentration of calpain. […] FIG. 4F is the alignment of mGluR1 (902-941) and mGluR5 (889-927) surrounding the calpain cleavage site.
In this set of experiments, we determined which protease(s) mediated NMDA-induced truncation of mGluR1α. […] Cortical neurons were pretreated with a calpain inhibitor, the cell-permeable calpain-inhibitor III, or the caspase inhibitor cpm-VAD-CHO for 2 hours and then incubated in the absence or presence of 100 µM NMDA for 1 hour. […] To further confirm calpain activation by NMDA under our experimental conditions, we determined the levels of the calpain-specific spectrin degradation fragments.
(Immunoblotting shows a protein as a band on a membrane.)

In the next data set the test system is Phospho Akt (Ser473). In words: Akt phosphorylation (Ser473) in cortical neurons (Western blot). It is filed as cell-based. To be noted: DHPG 50 μM, 10 min in presence of LY367385. The protocol: Representative current traces recorded from HEK293 cells transfected with either myc-mGluR1α (left panel) or myc-mGluR1α936Δ (right panel) and GIRK1, GIRK2 (top) or TRPC1 (bottom). DHPG (100 μM in extracellular solution) was applied using a fast perfusion system for the duration indicated by the scale bars. Each trace is the average of 5 continuous sweeps. The bar graphs represent the means±S.E.M. of DHPG-induced current amplitude recorded in cells transfected with myc-mGluR1α or myc-mGluR1α936Δplus GIRK1, GIRK2 (top right) or TRPC1 (bottom right) (n=3-7). In FIG. 6B, cortical neurons were pre-treated with NMDA (50 1μM, 1 h). Two hours after washing NMDA, neurons were treated with the mGluR1 agonist DHPG (50 μM) for 10 min in the absence or presence of LY367385. Total cell lysates were collected and probed with anti-Phospho Akt (Ser473) antibody. Without pretreatment with NMDA, DHPG increased the levels of Phospho-Akt (* p<0.05), an effect blocked by LY367385.
As reported in previous studies, mGluR1 activation can stimulate the PI3K-Akt signaling pathway through the mGluRI-Homer-PIEL-PI3K signaling complex. Since the Homer-binding domain of mGluR1α is located in the extreme C-terminus, which is removed after calpain-mediated truncation, it was interesting to determine whether this signaling mechanism remained functional. We first induced mGluR1α truncation by treating cortical neurons with 50 μM NMDA for 1 hour. Two hours after washing out NMDA, neurons were incubated with the mGluRI agonist DHPG (50 μM) for 10 min. Neurons were then lysed and levels of phosphorylated Akt were determined on Western blots. Consistent with a previous study, in cortical neurons that were not pre-treated with NMDA, DHPG induced an increase in phosphorylated Akt levels (p<0.05, n=4, Student's t-test for Control vs. DHPG), an effect which was blocked by the mGluR1 selective antagonist LY367385 (p<0.05, n=4, for DHPG+LY367385 vs. DHPG) (FIG. 6B). […] Thus, mGluR1α-PI3K-Akt signaling pathway was disrupted by calpain-mediated mGluR1α truncation.

For another data set, the system named is cortical neurons. In words: NMDA/DHPG neuronal toxicity in cortical neurons (EthD-1/Calcein AM live/dead). The class given is cell-based. Particulars: 100 μM LY367385 co-applied with 100 μM DHPG. The text has this: In FIGS. 8a and b, cortical neurons were co-transfected with green fluorescent protein (GFP) and vector DNA, myc-mGluR1α or myc-mGluR1α936Δ, respectively. […] Twelve hours later, neurons were stained with EthD-1 to label dead cells. Arrowheads in FIG. 8a indicate EthD-1 positive GFP-expressing neurons. * p<0.05. FIGS. 8c and d are representative photos and bar graphs showing differential roles of endogenous mGluR1 in neuronal toxicity before and after NMDA-induced truncation. Cortical neurons were treated as indicated and were stained with EthD-1 (for dead cells) and calcein AM (for live cells) 24 hours later. * p<0.001.
We then tested whether calpain-mediated truncation of endogenous mGluR1α also alters its roles in excitotoxicity. We used NMDA to elicit mGluR1α truncation and evaluated the roles of mGluR1 in neuronal toxicity by applying DHPG before and after truncation. Fourteen DIV cortical neurons cultured on 18×18 mm coverslips were divided into 6 groups, which received the following treatments, respectively: 1) “Control”: vehicle; 2) “NMDA”: 100 μM NMDA for 1 hour; 3) “DHPG before NMDA”: DHPG, 100 μM, for 1 hour, followed by 100 μM NMDA for 1 hour; 4) “DHPG after NMDA”: NMDA, 100 μM, for 1 hour, followed by 100 μM DHPG for 1 hour; 5) “DHPG+LY before NMDA”: 100 μM DHPG was co-applied with 100 μM LY367385 for 1 hour and followed by 100 μM NMDA for 1 hour; 6) “DHPG+LY after NMDA”: NMDA 100 μM for 1 hour, followed by 100 μM DHPG co-applied with 100 μM LY367385. Twenty-four hours after treatment, all neurons were stained for 20 minutes with 0.5 μM EthD-1 to label dead cells and 2 μM Calcein AM to label live cells. After three washes with culture medium, coverslips were mounted and one microscopy photo was immediately taken from the center area of each coverslip. EthD-1 and Calcein AM positive cells on each photo were then counted. The percentage of cell death was calculated as the number of EthD-1 positive cell/(number of EthD-1 positive cell+number of Calcein AM positive cell)*100%.

The subject of another data set is spectrin. In words: NMDA-induced calpain-specific spectrin degradation (145 kD fragment) in cortical neurons. The class given is cell-based. To be noted: NMDA 10 μM, 1 h.
The next data set relates to hippocampal neurons. In words: Kainic acid-induced neuronal damage (silver staining) and seizures in mice. To be noted: kainic acid 30 mg/kg s.c., mice, 7 days, silver staining. The class given is in vivo. The protocol:
(§1) The tat-peptide was injected i.p. 90 min before kainic acid injection. Note that the peptide had no effect on seizure intensity (bottom left).
They were sacrificed after 7 days and brains processed for silver staining, a marker of cell damage. Note the heavy labeling of the pyramidal cell layer in the KA alone group.
The effect of the tat-mGluR1 peptide on kainic acid-induced neuronal damage was also evaluated.

The subject of data set [2] is mGluR1α. In words: In vivo truncation of mGluR1α in hippocampus after kainic acid injection. Particulars: kainic acid 30 mg/kg s.c., mice. As to the method:
as §1
The objective of this set of experiments was to verify that the feedback mechanism of the present invention could take place in vivo and participate in excitotoxicity. We used the kainic acid model of excitotoxicity, as this model has been widely used to study the mechanisms underlying in vivo excitotoxicity (Wang et al. Mol Neurobiol 31:3-16, 2005). Mice were injected with kainic acid and sacrificed at different times after injection. Levels of mGluR1α were determined in hippocampus with both Western blots and immunohistochemistry (FIG. 10).

The values that follow come from US8642559B2, “C-terminal domain truncation of mGluR1α by calpain and uses thereof” (priority 2006, dated 2014).

Where a SMILES comes first, the peptide text is derived from it. The star is where a group is joined. Cbz = O=C(OCc1ccccc1)*

Experimental for spectrin: In this set of experiments, we determined which protease(s) mediated NMDA-induced truncation of mGluR1α. […] Cortical neurons were pretreated with a calpain inhibitor, the cell-permeable calpain-inhibitor III, or the caspase inhibitor cpm-VAD-CHO for 2 hours and then incubated in the absence or presence of 100 M NMDA for 1 hour. […] To further confirm calpain activation by NMDA under our experimental conditions, we determined the levels of the calpain-specific spectrin degradation fragments.

`Cc1cc(C(=O)O)ccc1[C@H](N)C(=O)O` [LY367385]: in the data set with mGluR1α [1] (1 h), the “block of glutamate-induced truncation of mGluR1α” value is listed as “do not block”. Also, the “block of DHPG-induced increase in phosphorylated Akt” value in the data set on Phospho Akt (Ser473) is on record as “blocked”. Moreover, in the data set on cortical neurons, the “block of the neuroprotective effect of DHPG before NMDA” value was “completely blocked” and the “block of the neurotoxic effect of DHPG after NMDA” value is “completely blocked”.

`C[C@H](NC(c1cccc2[nH]c(=O)c(=O)[nH]c12)P(=O)(O)O)c1ccc(Br)cc1` (stereo partly shown) [NVP-AAM077]: the “block of NMDA-induced truncation of mGluR1α” value in the data set on mGluR1α [1] (NMDA 10 μM, 1 h, NVP-AAM077 0.4 μM) is on record as “not”. Besides, the “block of NMDA-mediated spectrin degradation” value with spectrin (NVP-AAM077 0.4 μM) was “not”.

Regarding `N#Cc1cc2[nH]c(=O)c(=O)[nH]c2cc1[N+](=O)[O-]` [CNQX], the “block of glutamate-induced truncation of mGluR1α” value with mGluR1α [1] (1 h) is “had no effect”.

With `N[C@@H](CCCP(=O)(O)O)C(=O)O` [APV], the “block of glutamate-induced truncation of mGluR1α” value in the data set with mGluR1α [1] (1 h) is reported as “completely blocked”.

As to `CC(C(O)c1ccc(O)cc1)N1CCC(Cc2ccccc2)CC1` (stereo not shown) [ifenprodil], the “block of NMDA-induced truncation of mGluR1α” value in the data set with mGluR1α [1] (NMDA 10 μM, 1 h, ifenprodil 10 μM) is recorded as “selectively blocked”. Also, in the data set with spectrin (ifenprodil 10 μM), the “block of NMDA-mediated spectrin degradation” value is “blocked”.

Regarding `CC(C)[C@H](NC(=O)OCc1ccccc1)C(=O)N[C@H](C=O)Cc1ccccc1` [calpain inhibitor III] (Cbz-Val-Phe-aldehyde), the “block of NMDA-induced truncation of mGluR1α” value in the data set with mGluR1α [1] (inhibitor pretreatment 2 hours, then NMDA 100 μM 1 h, Calpi3 10 μM) was “significantly blocked”.

`C=C(C)[C@H]1CN[C@H](C(=O)O)[C@H]1CC(=O)O` [kainic acid]: the “neuronal damage in hippocampal pyramidal neurons” value with hippocampal neurons was “marked damage”. In the data set on mGluR1α [2], the “mGluR1 truncation in hippocampus following kainic acid injection” value was “rapidly truncated”.
